Source: paper PMC11892739, “Site-specific molecular glues for the 14-3-3/Tau pS214 protein–protein interaction via reversible covalent imine tethering” (RSC Medicinal Chemistry, 2025)
“Also recorded” adds a separate entry of the source.

Tests used:
Type in all cases: binding
14-3-3ζ/C-Raf peptide = target: T1, 14-3-3ζ/C-Raf peptide (Homo sapiens, UniProt P63104); assay: FA peptide screen, 14-3-3ζ titration to client peptide and compound: C-Raf; settings: 250 μM compound, 100 nM peptide; +1 Thr
T1 construct: made in house; host or cells: NiCo21 (DE3) E. coli
T1 sequence (P63104 whole entry): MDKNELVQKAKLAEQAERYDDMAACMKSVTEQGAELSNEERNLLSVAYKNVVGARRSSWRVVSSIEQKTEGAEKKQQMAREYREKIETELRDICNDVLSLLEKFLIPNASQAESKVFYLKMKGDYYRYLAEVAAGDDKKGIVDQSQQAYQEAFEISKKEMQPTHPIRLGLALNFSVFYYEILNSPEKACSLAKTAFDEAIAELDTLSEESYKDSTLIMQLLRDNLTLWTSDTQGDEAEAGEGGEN
Description: Since the hub protein 14-3-3 binds to hundreds of phosphoprotein partners, selectivity of PPI stabilization is a major challenge. The interplay of chemical reactivity, and the topology and functionality of the composite binding pocket shaped by 14-3-3 and Tau potentially provide entries towards selective stabilization. […] Here, 14-3-3ζ was titrated to a constant concentration of client peptide (100 nM) and compound (250 μM) to determine the SF250μM values for the particular 14-3-3 PPI. A variety of 14-3-3 binding proteins was represented in this client panel whereby the size and hydrophobicity of the +1 amino acid were varied. […]
chromatography (HisTrap high performance cartridges, Cytiva). Typically two 5 mL columns were used for a 2 L culture in which the lysate was loaded on the column, washed with 10 CV wash buffer (50 mM Hepes, pH 8.0, 300 mM NaCl, 25 mM imidazole, 2 mM βME), and eluted with several fractions (2-4 CV) of elution buffer (50 mM Hepes, pH 8.0, 300 mM NaCl, 250 mM imidazole, 2 mM βME). […] Dialyzed protein was concentrated to ∼40 mg/mL, analyzed by Q -Tof LC/MS, and aliquots were flash -frozen for storage at −80 °C. […] Fractions containing the 14 -3-3 protein were pooled and concentrated to ∼60 mg/mL, analyzed Q -Tof LC/MS, and aliquots were flash -frozen for storage at −80°C.
Fluorescence Anisotropy – compound titration […]

[1] = system: 14-3-3γ/Tau pS324 interaction; assay: Fluorescence anisotropy 14-3-3γ titration with compound and monovalent Tau pS324 peptide; settings: for apparent cooperativity factor (app. α), 14-3-3γ/Tau pS324: 2D titrations, 14-3-3γ titrated at varied compound concentrations, saturation of the ratio
Description: FA assays in which 14-3-3γ was titrated to a constant concentration of compound (250 μM) in the presence of the distinct monovalent Tau peptide (10 nM) were performed.
The determined stabilization factors are concentration-dependent (here 250 μM of compound) and might differ based on assay design. […] The app. α-factors of these compounds for both 14-3-3/Tau complexes were determined by 14-3-3γ titrations in the presence of varied concentrations of the particular compound (Fig. 5d and e). Both compounds reached saturation for both 14-3-3γ/Tau complexes enabling accurate determination of the α-factor. The app. α-factors of aldehydes 1 and 18 were plotted for both 14-3-3γ/Tau complexes to investigate phospho-binding site selective cooperativity (Fig. 5f and h). To do so, the stabilization factors at a given compound concentration were plotted against the compound concentration, leading to the determination of the app. α-factors. […]
chromatography (HisTrap high performance cartridges, Cytiva). […] Dialyzed protein was concentrated to ∼40 mg/mL, analyzed by Q -Tof LC/MS, and aliquots were flash -frozen for storage at −80 °C. […] Fractions containing the 14 -3-3 protein were pooled and concentrated to ∼60 mg/mL, analyzed Q -Tof LC/MS, and aliquots were flash -frozen for storage at −80°C.
Fluorescence Anisotropy – compound titration
Compound titration assays were performed by titrating compounds (in 1% DMSO, starting at 500 μM) in a 2-fold dilution series to preformed complex of fluorescein -labeled Tau pS2 (10 nM) and 14 -3-3ζ (100 nM) (which represents approximately 20% bound Tau pS2 peptide to 14 -3-3ζ to allow further complex formation by addition of fragments 1) in FA buffer (10 mM HEPES pH 7.4, 150 mM NaCl, 50 µM TCEP, 0.1% (v/v) Tween20, 0.1% (w/v) BSA). […] Measurements were performed directly after plate preparation, using a Tecan SPARK plate reader at room temperature ( λex: 485±20 nm; λem: 535±25 nm; mirror: automatic; flashes: 30; settle time: 1 ms; gain: optimal; Z -position: calculated from well). […]

14-3-3γ = 14-3-3γ (Homo sapiens, UniProt P61981); assay: 19F-NMR spectroscopy of fluorinated analogs at varying 14-3-3 concentrations; settings: 125 μM stabilizer, 14-3-3 0-250 μM, no Tau peptide
Sequence of 14-3-3γ (P61981 whole entry): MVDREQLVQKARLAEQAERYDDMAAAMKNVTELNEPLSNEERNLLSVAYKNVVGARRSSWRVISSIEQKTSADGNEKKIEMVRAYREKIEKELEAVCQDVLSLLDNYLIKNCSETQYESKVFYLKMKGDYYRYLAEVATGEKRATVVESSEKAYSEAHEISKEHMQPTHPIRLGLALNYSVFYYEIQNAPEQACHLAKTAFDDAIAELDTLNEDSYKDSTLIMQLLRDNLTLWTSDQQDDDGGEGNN
Description: Fig. 3 a Dose–response fluorescence anisotropy data of compound titrations to 10 nM FITC-labeled Tau pS2 peptide and 100 nM 14-3-3ζ. […] Mean of three individually performed experiments (see ESI ^† Fig. S8 for the protein titrations). e Differential scanning fluorimetry assay results. Identified melting temperatures (Tm) of 14-3-3γ alone (2.5 μM) and in the presence of Tau pS2 peptide (25 μM) and additionally with selected compounds (75 μM).
This stepwise mechanism has been described in detail for related benzaldehyde stabilizers and the 14-3-3/Pin1 interaction.[34] However, the imidazolyl-benzaldehydes might also show an intrinsic binding affinity for 14-3-3. To elucidate the underlying processes, we performed ^19F-NMR spectroscopy studies (Fig. 3f) with the fluorinated analogs 20 and 21. At a constant stabilizer concentration (125 μM), the 14-3-3 concentration was varied from 0 μM to 250 μM.

| Structure (SMILES) | stabilization of 14-3-3/C-Raf peptide (in words) (14-3-3ζ/C-Raf peptide) | SF250μM for the 14-3-3γ/Tau pS324 complex ([1]; 250 μM compound, 10 nM Tau pS324 peptide, internal DMSO reference) | apparent cooperativity factor (app. α), 14-3-3γ/Tau pS324 [1] | binding to 14-3-3 by 19F-NMR (in words) (14-3-3γ) |
| --- | --- | --- | --- | --- |
| CCc1ccc(-c2nccn2-c2ccc(C=O)c(Br)c2)cc1 [Compound 18] | did not show significant stabilizing activity | 3.2 | 3.6 |  |
| O=Cc1ccc(-n2ccnc2-c2ccc(C(F)(F)F)cc2)cc1Br [Compound 20] |  |  |  | formation of the binary 14-3-3/stabilizer complex |
| O=Cc1ccc(-n2ccnc2-c2ccccc2)cc1Br [Compound 1] |  |  | 6.8 |  |
| O=Cc1ccc(-n2ccnc2-c2ccc(OC(F)(F)F)cc2)cc1Br [Compound 21] |  |  |  | ligand binding to 14-3-3γ; also recorded: formation of the binary 14-3-3/stabilizer complex |
